The source of these data is ChEMBL document CHEMBL1157272, “Four aristolochic acid esters of rearranged ent-elemane sesquiterpenes from aristolochia heterophylla” (J Nat Prod, 1999).

As a reminder, the IC50 is the concentration that inhibits the measured activity by half. A lower IC50 goes with greater potency.

This assay is described as follows: Cytotoxicity against human HepG2(2.2.15) cells. The class given is functional, cell-based.
Compound `C=C[C@@]1(C)CCC=C(C[C@H](C)OC(=O)c2cc3c(c4c2c([N+](=O)[O-])cc2c(OC)cccc24)OCO3)[C@H]1C(=C)C=O` [ARISTOPHYLLIDE A] returned an IC50 of 5.1 µM.

Take `C=C[C@@]1(C)CCC=C(C[C@@H](C)OC(=O)c2cc3c(c4c2c([N+](=O)[O-])cc2c(OC)cccc24)OCO3)[C@@H]1C(=C)C=O` [ARISTOPHYLLIDE B]: the 50% inhibitory concentration (IC50) was found to be 9.4 µM. Next, `C=C[C@@]1(C)CCC=C(C[C@H](C)OC(=O)c2cc3c(c4c2c([N+](=O)[O-])cc2ccccc24)OCO3)[C@H]1C(=C)C=O` [ARISTOPHYLLIDE C]: 6.2 µM.

`C=C[C@@]1(C)CCC=C(C[C@@H](C)OC(=O)c2cc3c(c4c2c([N+](=O)[O-])cc2ccccc24)OCO3)[C@@H]1C(=C)C=O` [ARISTOPHYLLIDE D] came in with a 50% inhibitory concentration (IC50) of 13.2 µM.
